The source of these data is ChEMBL document CHEMBL1201862, “PubChem BioAssay data set” (2004).

The structures appear in SMILES notation. Calls of active or inactive are those of the source.

Experiment [1] addresses DNA dC->dU-editing enzyme APOBEC-3A (Homo sapiens, UniProt P31941). The experiment is described as follows: APOBEC3A DNA deaminase inhibitors, dose response, biochemical (AID 504722). Type of experiment: functional.
The target of experiment [2] is DNA dC->dU-editing enzyme APOBEC-3G (Homo sapiens, UniProt Q9HC16). The experiment is described as follows: Dose Response confirmation of small molecule APOBEC3G DNA Deaminase Inhibitors via a fluorescence-based single-stranded DNA deaminase assay. [Related pubchem assays (depositor defined):AID493012, AID493028]. Type of experiment: functional.
Experiment [3] concerns the target Intestinal-type alkaline phosphatase (Homo sapiens, UniProt P09923). The experiment is described as follows: Dose Response confirmation of uHTS hits from a small molecule inhibitors of human intestinal alkaline phosphatase via a luminescent assay. [Related pubchem assays (depositor defined):AID2544, AID2574]. Type of experiment: functional.
Experiment [4] deals with Beta-galactosidase (Escherichia coli, UniProt Q8VNN2). The experiment is described as follows: beta-galactosidase enzyme inhibitors and activators, dose response, artefact control for CCR6 antagonist project, biochemical, E. coli enzyme, set 3 (AID 504712). The class given is functional.
In experiment [5] the test system is Vero. The experiment is described as follows: Vero cell cytotoxicity, cytotoxicity control for flavivirus capping enzyme inhibitors (AID 588742). Type of experiment: functional. The settings on record: Chlorocebus sabaeus.
Experiment [6] has as its system HEK293. The experiment in a line: Fluorescence-based counterscreen for potentiators or agonists of NPY-Y2: cell-based high-throughput dose response assay to identify inhibitors of cyclic nucleotide gated ion channel (CNGC) activity. In this assay, the parental HEK293 cell line transfected with a cyclic-nucleotide gated ion channel (CNGC)-based cAMP sensor is used to measure inhibition of isoproterenol-induced CNGC activity by test compound. The class given is functional. The settings on record: Homo sapiens. (A counterscreen serves to expose hits that act by an unwanted route or on another target.);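 also: stimulus is 1 µM isoproterenol at EC100 plus PDE inhibitor Ro 20-1724 at 25 µM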

Experiment [7] has as its target T1, Neuropeptide Y receptor type 2 (Homo sapiens, UniProt P49146).
T1 sequence (P49146 whole entry): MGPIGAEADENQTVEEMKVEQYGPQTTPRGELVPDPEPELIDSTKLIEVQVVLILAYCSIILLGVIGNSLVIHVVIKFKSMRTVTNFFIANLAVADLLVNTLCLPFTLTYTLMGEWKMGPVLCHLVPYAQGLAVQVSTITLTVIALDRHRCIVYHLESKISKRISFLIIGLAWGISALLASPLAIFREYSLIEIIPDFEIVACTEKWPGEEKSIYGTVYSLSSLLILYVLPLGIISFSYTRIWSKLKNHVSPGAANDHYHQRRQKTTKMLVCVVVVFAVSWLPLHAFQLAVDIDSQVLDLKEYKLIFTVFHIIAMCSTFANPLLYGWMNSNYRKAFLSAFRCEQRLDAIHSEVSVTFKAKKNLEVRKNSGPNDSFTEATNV
The experiment is described as follows: Fluorescence-based cell-based high-throughput dose response assay for agonists of NPY-Y2. [Related pubchem assays: 1703 (Screening assay (CNGC inhibitors).), 1359 (Screening assay (NPY-Y2 potentiators or agonists).), 1304 (Screening assay (NPY-Y1 potentiators or agonists).), 1710 (Screening assay (NPY-Y2 agonists).), 1791 (Summary AID.)]. Type of experiment: functional.

Experiment [8] deals with T2, Neuropeptide Y receptor type 1 (Homo sapiens, UniProt P25929).
T2 sequence (P25929 whole entry): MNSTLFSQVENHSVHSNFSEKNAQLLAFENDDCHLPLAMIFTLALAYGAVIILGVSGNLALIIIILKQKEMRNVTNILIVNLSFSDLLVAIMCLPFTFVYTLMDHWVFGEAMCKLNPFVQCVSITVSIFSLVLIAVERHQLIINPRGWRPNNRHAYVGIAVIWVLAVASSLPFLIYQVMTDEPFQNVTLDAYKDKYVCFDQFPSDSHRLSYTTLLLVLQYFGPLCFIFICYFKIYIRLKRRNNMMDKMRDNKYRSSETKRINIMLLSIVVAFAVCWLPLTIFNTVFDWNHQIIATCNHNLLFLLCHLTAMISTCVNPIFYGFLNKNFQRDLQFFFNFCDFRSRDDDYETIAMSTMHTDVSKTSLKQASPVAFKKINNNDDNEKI
The experiment is described as follows: Fluorescence-based counterscreen for agonists of NPY-Y2: cell-based high-throughput dose response assay for agonists of NPY-Y1. The class given is functional.

Experiment [9] concerns the target T3, Short transient receptor potential channel 4 (Mus musculus, UniProt Q9QUQ5).
T3 sequence (Q9QUQ5 whole entry): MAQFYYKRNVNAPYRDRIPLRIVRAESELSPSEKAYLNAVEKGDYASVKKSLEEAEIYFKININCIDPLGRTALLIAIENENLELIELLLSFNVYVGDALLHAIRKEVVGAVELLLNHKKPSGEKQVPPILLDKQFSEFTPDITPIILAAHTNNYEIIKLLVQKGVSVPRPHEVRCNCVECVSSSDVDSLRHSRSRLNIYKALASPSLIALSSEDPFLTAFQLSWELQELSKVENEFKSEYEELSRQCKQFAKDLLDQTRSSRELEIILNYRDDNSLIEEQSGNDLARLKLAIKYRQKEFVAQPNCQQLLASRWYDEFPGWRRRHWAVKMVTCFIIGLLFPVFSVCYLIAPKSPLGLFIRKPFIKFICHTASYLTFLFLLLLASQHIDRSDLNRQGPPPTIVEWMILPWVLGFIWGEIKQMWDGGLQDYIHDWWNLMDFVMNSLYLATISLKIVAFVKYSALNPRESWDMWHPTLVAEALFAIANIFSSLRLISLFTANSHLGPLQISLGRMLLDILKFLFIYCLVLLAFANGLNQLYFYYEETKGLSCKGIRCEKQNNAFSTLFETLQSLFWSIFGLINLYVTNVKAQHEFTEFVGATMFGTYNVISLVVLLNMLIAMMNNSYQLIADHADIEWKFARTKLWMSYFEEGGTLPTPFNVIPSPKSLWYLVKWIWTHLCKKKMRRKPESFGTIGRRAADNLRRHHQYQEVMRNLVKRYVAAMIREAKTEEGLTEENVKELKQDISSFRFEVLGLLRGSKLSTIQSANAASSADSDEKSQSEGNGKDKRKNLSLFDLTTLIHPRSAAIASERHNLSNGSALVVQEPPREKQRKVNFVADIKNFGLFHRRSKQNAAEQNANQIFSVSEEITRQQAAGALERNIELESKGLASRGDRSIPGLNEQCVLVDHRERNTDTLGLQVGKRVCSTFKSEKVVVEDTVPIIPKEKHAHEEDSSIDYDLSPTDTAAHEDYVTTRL
The experiment is described as follows: mouse TRPC4 channel inhibitors, dose response, cell-based, HEK293 TRPC4/mu-opioid, Fluo-4 calcium (AID 434942).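 Also: potency of inhibitors blocking the TRPC4 calcium response.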 Type of experiment: functional.

The target of experiment [10] is Eukaryotic translation initiation factor 4E (Mus musculus, UniProt P63073). The experiment is described as follows: eIF4E–eIF4G protein interaction inhibitors, dose response, biochemical, TR-FRET (AID 855).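 Also: potency for disrupting eIF4E binding to eIF4GI seen as loss of FRET.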 Type of experiment: functional. In general terms: TR-FRET usually uses a lanthanide donor and a delayed reading to cut background.
Experiment [11] deals with G-protein coupled receptor 35 (Homo sapiens, UniProt Q9HC97). The experiment is described as follows: GPR35 antagonists blocking zaprinast-driven arrestin recruitment, primary screen, imaging, U2OS, beta-arrestin-GFP, zaprinast agonist (AID 2058).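 Also: antagonist potency meaning inhibition of agonist-induced arrestin redistribution.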 The class given is functional. A general note: Recruitment of arrestin is a read-out of receptor activation apart from second messengers.

Experiment [12] is described as follows: inhibitors of intracellular T. cruzi replication, confirmation, NIH3T3 host cells, beta-gal luminescence (AID 2044).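 Also: intracellular parasites grown in NIH/3T3 mouse fibroblasts as host cells; luminescent beta-galactosidase reporter signal from transgenic T. cruzi replicating inside host cells; inhibitors lower the luminescence signal.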 Type of experiment: functional, cell-based.
Experiment [13] is described as follows: growth suppression of PTEN-null colon cells, dose response, cell-based, HCT116 PTEN knockout (AID 1047).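 Also: HCT116 colon tumor cells with PTEN knocked out; cells exposed to compound for 60 hours before readout; potency for loss of cell viability measured by luminescence.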 The class given is functional.
Experiment [14] is described as follows: cytotoxicity toward NIH3T3 fibroblasts, dose response, counter-screen, cell-based, ATP luminescence, mouse fibroblasts (AID 2010).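 Also: cells exposed to compound for about 90 hours before reading.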 The class given is functional.
A short description of experiment [15]: growth suppression of beta-catenin-knockout colon cells, dose response, cell-based, HCT116, human colon tumor (AID 1045).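 Also: HCT116 colon tumor cells with beta catenin knocked out; cells exposed to compound for 60 hours.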 Type of experiment: functional.

Beta-galactosidase, sequence (Q8VNN2 whole entry): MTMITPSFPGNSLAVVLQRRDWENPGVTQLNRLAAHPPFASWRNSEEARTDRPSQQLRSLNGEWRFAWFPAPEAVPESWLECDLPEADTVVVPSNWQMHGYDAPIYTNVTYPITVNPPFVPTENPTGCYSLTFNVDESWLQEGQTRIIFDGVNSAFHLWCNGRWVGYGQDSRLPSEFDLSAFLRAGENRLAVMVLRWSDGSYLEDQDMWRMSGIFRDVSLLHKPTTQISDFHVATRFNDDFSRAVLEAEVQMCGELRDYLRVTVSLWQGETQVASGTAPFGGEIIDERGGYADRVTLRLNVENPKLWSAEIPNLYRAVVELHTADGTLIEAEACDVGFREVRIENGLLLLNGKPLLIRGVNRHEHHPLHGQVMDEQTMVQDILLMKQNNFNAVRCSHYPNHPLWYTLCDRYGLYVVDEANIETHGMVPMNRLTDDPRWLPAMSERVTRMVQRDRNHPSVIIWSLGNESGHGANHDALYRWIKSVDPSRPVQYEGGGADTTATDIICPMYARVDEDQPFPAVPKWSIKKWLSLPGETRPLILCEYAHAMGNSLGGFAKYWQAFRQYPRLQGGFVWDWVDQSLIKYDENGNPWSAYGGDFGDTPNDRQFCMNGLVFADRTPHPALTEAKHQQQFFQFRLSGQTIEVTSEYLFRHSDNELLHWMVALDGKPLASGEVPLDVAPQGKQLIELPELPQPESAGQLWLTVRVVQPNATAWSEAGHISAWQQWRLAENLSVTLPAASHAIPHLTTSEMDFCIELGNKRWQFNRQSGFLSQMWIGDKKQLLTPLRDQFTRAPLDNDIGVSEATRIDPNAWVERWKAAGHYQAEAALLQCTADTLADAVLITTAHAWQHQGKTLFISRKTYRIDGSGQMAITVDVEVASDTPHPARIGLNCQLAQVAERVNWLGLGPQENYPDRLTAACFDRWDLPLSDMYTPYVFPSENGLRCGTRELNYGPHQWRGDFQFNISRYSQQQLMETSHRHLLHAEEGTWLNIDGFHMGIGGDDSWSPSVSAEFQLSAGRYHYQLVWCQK
DNA dC->dU-editing enzyme APOBEC-3G, sequence (Q9HC16 whole entry): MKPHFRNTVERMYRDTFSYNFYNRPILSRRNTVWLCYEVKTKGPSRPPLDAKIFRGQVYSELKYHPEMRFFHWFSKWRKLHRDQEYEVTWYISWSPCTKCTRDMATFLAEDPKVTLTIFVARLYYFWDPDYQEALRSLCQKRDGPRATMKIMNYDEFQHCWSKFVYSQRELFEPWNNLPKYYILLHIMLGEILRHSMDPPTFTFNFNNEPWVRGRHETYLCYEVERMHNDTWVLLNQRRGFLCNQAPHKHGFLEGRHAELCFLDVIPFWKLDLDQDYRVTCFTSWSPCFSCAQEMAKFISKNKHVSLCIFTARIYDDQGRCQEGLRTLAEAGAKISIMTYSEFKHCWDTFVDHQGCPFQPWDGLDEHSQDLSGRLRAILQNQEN
Eukaryotic translation initiation factor 4E, sequence (P63073 whole entry): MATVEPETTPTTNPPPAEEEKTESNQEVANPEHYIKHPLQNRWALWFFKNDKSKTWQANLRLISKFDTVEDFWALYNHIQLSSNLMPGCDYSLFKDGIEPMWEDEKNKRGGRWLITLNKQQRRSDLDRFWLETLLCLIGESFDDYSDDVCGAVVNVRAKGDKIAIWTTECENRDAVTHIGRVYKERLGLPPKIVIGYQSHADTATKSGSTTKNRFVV
Intestinal-type alkaline phosphatase, sequence (P09923 whole entry): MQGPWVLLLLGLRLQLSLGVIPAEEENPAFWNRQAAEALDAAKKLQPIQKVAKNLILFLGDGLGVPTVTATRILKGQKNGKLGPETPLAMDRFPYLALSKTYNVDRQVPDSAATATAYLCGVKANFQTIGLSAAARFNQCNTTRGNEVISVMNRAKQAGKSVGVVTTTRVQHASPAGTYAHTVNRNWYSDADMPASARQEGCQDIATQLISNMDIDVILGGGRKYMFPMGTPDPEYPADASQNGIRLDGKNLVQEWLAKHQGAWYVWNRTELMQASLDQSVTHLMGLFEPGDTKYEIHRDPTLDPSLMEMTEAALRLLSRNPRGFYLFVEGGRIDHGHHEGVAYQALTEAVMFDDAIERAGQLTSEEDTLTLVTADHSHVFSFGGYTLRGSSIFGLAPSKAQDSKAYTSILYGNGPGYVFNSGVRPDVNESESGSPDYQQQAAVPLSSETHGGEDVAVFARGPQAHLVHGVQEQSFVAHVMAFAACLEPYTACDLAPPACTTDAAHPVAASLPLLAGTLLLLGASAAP
DNA dC->dU-editing enzyme APOBEC-3A, sequence (P31941 whole entry): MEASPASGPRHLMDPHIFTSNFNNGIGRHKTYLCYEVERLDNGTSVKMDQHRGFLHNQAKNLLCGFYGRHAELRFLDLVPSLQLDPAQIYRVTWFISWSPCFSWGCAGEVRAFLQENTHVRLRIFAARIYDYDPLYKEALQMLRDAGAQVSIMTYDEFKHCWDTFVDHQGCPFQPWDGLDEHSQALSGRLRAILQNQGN
G-protein coupled receptor 35, sequence (Q9HC97 whole entry): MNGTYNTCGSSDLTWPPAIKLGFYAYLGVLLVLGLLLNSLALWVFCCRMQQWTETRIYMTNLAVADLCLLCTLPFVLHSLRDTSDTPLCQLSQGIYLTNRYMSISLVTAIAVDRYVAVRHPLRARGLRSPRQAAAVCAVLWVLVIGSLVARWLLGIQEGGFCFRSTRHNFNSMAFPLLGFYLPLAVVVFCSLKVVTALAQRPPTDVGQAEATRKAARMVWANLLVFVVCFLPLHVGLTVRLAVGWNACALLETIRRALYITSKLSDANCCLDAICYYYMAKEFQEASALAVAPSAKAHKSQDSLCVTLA

For `CCc1cc(-c2n[nH]c(=S)n2CC)cs1`, the IC50 (commonly the concentration at which inhibition is half-maximal) is > 100 µM (inactive) in [1] and 5.02 µM (active) in [2].
`Cc1ccc(S(=O)(=O)N(CC(=O)Nc2ccc(C)cc2C)C(=O)N2CCN(C)CC2)cc1`: the IC50 in experiment [3] is > 100 µM (inactive).
On to `O=C(N/N=C/c1cc([N+](=O)[O-])ccc1O)Nc1ccccc1`, for which the IC50 in [4] was > 66.6 µM (inactive). Further, in [5], the CC50 (commonly the concentration at which the toxic effect on the cells reaches its halfway point) was 35.1 µM (active).
Consider `Cc1cccc(N2CCc3c2nc2ccccc2c3N)c1`, for which the EC50 – broadly, the midpoint of the concentration-response curve – was 9.3 µM (active) in experiment [6], 3.43 µM (active) in experiment [7], 3.07 µM (active) in experiment [8] and 1.06 µM (active) in [9]. The IC50 in [10] was > 64 µM (inactive).
On to `CCOc1ccc(NC(=O)C(C)Oc2ccccc2C(=O)Nc2ccc(C)c(Cl)c2)cc1` (stereo not given), for which, in [11], the IC50 was 1.31 µM (active). Besides, the EC50 is 2.06 µM (active) in experiment [12], 17.9 µM (active) in [13], > 60 µM (not active) in [14] and 19.6 µM (active) in experiment [15].
